Ki and IC50 data for 27 compounds are collected here from US10988477B2 (Merck Patent GmbH, priority 2018, dated 2021).

One test deals with GCN2 kinase (Homo sapiens, UniProt Q9P2K8). The experiment in a line: GCN2 enzyme inhibition assay (Transcreener ADP2 fluorescence polarization). Particulars: compounds of Formula II; 280 μM ATP, 4 nM GCN2 kinase. It is filed as biochemical. The essentials: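 Kinase activity is followed as ADP formation, measured by fluorescence polarization, using 4 nM enzyme with 280 μM ATP and 200 μM (RS)7 peptide at pH 7.5 and 25 °C for 1 h. Values come from a non-linear tight-binding fit.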

Test [1] deals with intracellular GCN2 (phosphorylation of the GCN2 substrate eIF2α) (Homo sapiens, UniProt Q9P2K8). Description: GCN2 cellular inhibition assay (AlphaScreen SureFire P-eIF2α Ser51, borrelidin-treated U2OS cells). It is filed as cell-based. Particulars: compounds of Formula II; biomarker assay, phosphorylated eIF2α Ser51 in borrelidin-treated U2OS cells. The essentials: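 U2OS cells, adhered overnight, received compounds in 4-fold serial dilutions from 40 μM final, then 10 μM borrelidin for 1 h at 37 °C. Lysates were read by AlphaScreen for phospho-eIF2α Ser51; percent inhibition was set against borrelidin-only wells.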

SMILES strings stand for the structures.

Chain of GCN2 kinase (Q9P2K8 whole entry): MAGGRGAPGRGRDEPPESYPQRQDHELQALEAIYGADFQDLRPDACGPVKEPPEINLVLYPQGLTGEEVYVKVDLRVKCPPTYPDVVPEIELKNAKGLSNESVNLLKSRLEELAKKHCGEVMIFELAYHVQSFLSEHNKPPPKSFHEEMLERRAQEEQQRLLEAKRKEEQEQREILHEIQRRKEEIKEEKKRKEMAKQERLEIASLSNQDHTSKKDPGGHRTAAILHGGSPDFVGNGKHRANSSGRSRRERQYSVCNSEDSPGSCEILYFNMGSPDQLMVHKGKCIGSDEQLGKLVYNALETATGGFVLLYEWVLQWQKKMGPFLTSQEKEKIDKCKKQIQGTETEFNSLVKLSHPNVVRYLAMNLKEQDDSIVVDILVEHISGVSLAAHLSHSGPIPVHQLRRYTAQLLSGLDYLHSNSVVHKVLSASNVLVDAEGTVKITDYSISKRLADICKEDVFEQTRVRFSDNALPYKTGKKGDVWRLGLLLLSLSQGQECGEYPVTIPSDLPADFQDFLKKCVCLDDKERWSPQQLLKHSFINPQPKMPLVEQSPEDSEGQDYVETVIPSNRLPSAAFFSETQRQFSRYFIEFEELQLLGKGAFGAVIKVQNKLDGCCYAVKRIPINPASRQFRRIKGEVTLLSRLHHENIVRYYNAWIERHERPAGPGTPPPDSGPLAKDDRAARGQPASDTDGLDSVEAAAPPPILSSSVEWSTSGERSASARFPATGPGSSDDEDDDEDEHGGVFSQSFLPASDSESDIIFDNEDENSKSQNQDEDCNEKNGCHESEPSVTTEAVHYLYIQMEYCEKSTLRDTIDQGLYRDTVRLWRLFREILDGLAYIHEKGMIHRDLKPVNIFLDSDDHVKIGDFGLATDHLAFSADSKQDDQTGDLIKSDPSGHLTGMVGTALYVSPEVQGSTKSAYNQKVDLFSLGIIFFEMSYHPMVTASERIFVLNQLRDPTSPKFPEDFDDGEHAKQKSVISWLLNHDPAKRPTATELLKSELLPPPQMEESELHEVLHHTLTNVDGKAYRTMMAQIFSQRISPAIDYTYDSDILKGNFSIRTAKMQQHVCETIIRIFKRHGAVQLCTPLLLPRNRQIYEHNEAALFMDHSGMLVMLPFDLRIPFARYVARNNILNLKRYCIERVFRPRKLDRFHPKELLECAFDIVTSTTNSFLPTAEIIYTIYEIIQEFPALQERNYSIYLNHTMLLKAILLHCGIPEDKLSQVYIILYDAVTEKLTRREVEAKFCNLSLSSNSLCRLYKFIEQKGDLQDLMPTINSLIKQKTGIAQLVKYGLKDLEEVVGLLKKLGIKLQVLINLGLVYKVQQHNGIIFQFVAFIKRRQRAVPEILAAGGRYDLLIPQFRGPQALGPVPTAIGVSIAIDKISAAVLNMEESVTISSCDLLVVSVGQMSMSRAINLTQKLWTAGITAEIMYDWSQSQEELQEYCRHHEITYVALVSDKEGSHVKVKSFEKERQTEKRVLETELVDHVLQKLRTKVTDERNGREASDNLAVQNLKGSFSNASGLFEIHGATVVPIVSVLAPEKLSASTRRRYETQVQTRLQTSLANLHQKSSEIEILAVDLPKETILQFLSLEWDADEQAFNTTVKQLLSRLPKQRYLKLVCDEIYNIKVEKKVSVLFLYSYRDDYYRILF
Chain of intracellular GCN2 (phosphorylation of the GCN2 substrate eIF2α) (Q9P2K8 whole entry): as above

At GCN2 kinase, `CS(=O)(=O)NCC1CN(c2cc(-c3cnc4ccc(C(F)F)nn34)ccn2)CCN1` (stereo not drawn) [II-90, N-((4-(4-(6-(Difluoromethyl)imidazo[1,2-b]pyridazin-3-yl)pyridin-2-yl)piperazin-2-yl)methyl)methanesulfonamide] gave a Ki of 10 to 1000 nM. The same compound showed an IC50 in test [1] of 500 to 5000 nM.
Take `CS(=O)(=O)NCC1CCCN(c2cc(-c3cnc4ccc(C(F)F)nn34)cc(N3CC4(CNC4)C3)n2)C1` (stereo not drawn) [II-92, N-[[1-[6-(2,6-Diazaspiro[3.3]heptan-2-yl)-4-[6-(difluoromethyl)imidazo[1,2-b]pyridazin-3-yl]-2-pyridyl]-3-piperidyl]methyl]methanesulfonamide]: the Ki on GCN2 kinase is under 10 nM. In addition, the IC50 in test [1] was 500 to 5000 nM.
The corresponding values for `CC1CN(c2ccnc(-c3cnc4ccc(C(F)F)nn34)c2)CC(CNS(C)(=O)=O)O1` (stereo not drawn) [II-94, N-((4-(2-(6-(Difluoromethyl)imidazo[1,2-b]pyridazin-3-yl)pyridin-4-yl)-6-methylmorpholin-2-yl)methyl)methanesulfonamide] are under 10 nM and under 500 nM.
The corresponding values for `CS(=O)(=O)NCC1CCCN(c2cc(-c3cnc4ccc(C(F)F)nn34)cc(N3CCNCC3)n2)C1` (stereo not drawn) [II-96, N-((1-(4-(6-(Difluoromethyl)imidazo[1,2-b]pyridazin-3-yl)-6-(piperazin-1-yl)pyridin-2-yl)piperidin-3-yl)methyl)methanesulfonamide] are under 10 nM and 500 to 5000 nM.
The corresponding values for `CN1CCN(c2cc(-c3cnc4ccc(C(F)F)nn34)ccn2)CC1CO` (stereo not drawn) [II-97, (4-(4-(6-(Difluoromethyl)imidazo[1,2-b]pyridazin-3-yl)pyridin-2-yl)-1-methylpiperazin-2-yl)methanol] are 10 to 1000 nM and over 5000 nM.
In turn, `CN1CCN(c2cc(-c3cnc4ccc(C(F)F)nn34)ccn2)CC1CNS(C)(=O)=O` (stereo not drawn) [II-98, N-((4-(4-(6-(Difluoromethyl)imidazo[1,2-b]pyridazin-3-yl)pyridin-2-yl)-1-methylpiperazin-2-yl)methyl)methanesulfonamide] displayed a Ki on GCN2 kinase of 10 to 1000 nM. For the same compound, the half-inhibitory concentration (IC50) in test [1] lay within 500 to 5000 nM.
The corresponding values for `CS(=O)(=O)NCC1COCCN(c2cc(-c3cnc4ccc(C(F)F)nn34)ccn2)C1` (stereo not drawn) [II-99, N-((4-(4-(6-(Difluoromethyl)imidazo[1,2-b]pyridazin-3-yl)pyridin-2-yl)-1,4-oxazepan-6-yl)methyl)methanesulfonamide] are under 10 nM and 500 to 5000 nM.
The corresponding values for `CS(=O)(=O)N1CC2(CCCN(c3cncc(-c4cnc5ccc(C(F)F)nn45)c3)C2)C1` [II-101, 6-(Difluoromethyl)-3-(5-(2-(methylsulfonyl)-2,6-diazaspiro[3.5]nonan-6-yl)pyridin-3-yl)imidazo[1,2-b]pyridazine] are under 10 nM and 500 to 5000 nM.
The corresponding values for `CS(C)(=O)=NC[C@@H]1CN(c2cc(-c3cnc4ccc(C(F)F)nn34)ccn2)CCO1` [II-102, [(2S)-4-[4-[6-(Difluoromethyl)imidazo[1,2-b]pyridazin-3-yl]-2-pyridyl]morpholin-2-yl]methylimino-dimethyl-oxo-sulfane] are 10 to 1000 nM and over 5000 nM.
Consider `CS(=O)(=O)NCC1CN(c2ccnc(-c3cnc4ccc(C(F)F)nn34)c2)CCC1(F)F` (stereo not drawn) [II-103, N-((1-(2-(6-(Difluoromethyl)imidazo[1,2-b]pyridazin-3-yl)pyridin-4-yl)-4,4-difluoropiperidin-3-yl)methyl)methanesulfonamide], for which the Ki on GCN2 kinase is under 10 nM. Moreover, in test [1], the IC50 was under 500 nM.
As to `CS(=N)(=O)CCC1CCCN(c2cc(-c3cnc4ccc(C(F)F)nn34)ccn2)C1` (stereo not drawn) [II-104, (2-(1-(4-(6-(Difluoromethyl)imidazo[1,2-b]pyridazin-3-yl)pyridin-2-yl)piperidin-3-yl)ethyl)(imino)(methyl)-λ^6-sulfanone], the Ki at GCN2 kinase lay in the range of 10 to 1000 nM. Moreover, the IC50 in test [1] is over 5000 nM.
The corresponding values for `CC(NS(C)(=O)=O)C1CN(c2ccnc(-c3cnc4ccc(C(F)F)nn34)c2)CCO1` (stereo not drawn) [II-105, N-(1-(4-(2-(6-(Difluoromethyl)imidazo[1,2-b]pyridazin-3-yl)pyridin-4-yl)morpholin-2-yl)ethyl)methanesulfonamide] are under 10 nM and 500 to 5000 nM.
The corresponding values for `CC(NS(C)(=O)=O)C1CN(c2cc(-c3cnc4ccc(C(F)F)nn34)ccn2)CCO1` (stereo not drawn) [II-106, N-(1-(4-(4-(6-(Difluoromethyl)imidazo[1,2-b]pyridazin-3-yl)pyridin-2-yl)morpholin-2-yl)ethyl)methanesulfonamide] are under 10 nM and 500 to 5000 nM.
Compound `FC(F)c1ccc2ncc(-c3ccnc(N4CCOC(c5cn[nH]c5)C4)c3)n2n1` (stereo not drawn) [II-107, 4-(4-(6-(Difluoromethyl)imidazo[1,2-b]pyridazin-3-yl)pyridin-2-yl)-2-(1H-pyrazol-4-yl)morpholine] showed a Ki at GCN2 kinase of 10 to 1000 nM. In test [1], this compound gave an IC50 of under 500 nM.
The corresponding values for `FC(F)c1ccc2ncc(-c3ccnc(N4CCOC(c5cn[nH]c5)C4)c3)n2n1` (stereo not drawn) [II-108, 4-(4-(6-(Difluoromethyl)imidazo[1,2-b]pyridazin-3-yl)pyridin-2-yl)-2-(1H-pyrazol-4-yl)morpholine] are 10 to 1000 nM and 500 to 5000 nM.
The corresponding values for `CN(CC1CCCN(c2cc(-c3cnc4ccc(C(F)F)nn34)ccn2)C1)S(C)(=O)=O` (stereo not drawn) [II-109, N-((1-(4-(6-(Difluoromethyl)imidazo[1,2-b]pyridazin-3-yl)pyridin-2-yl)piperidin-3-yl)methyl)-N-methylmethanesulfonamide] are 10 to 1000 nM and 500 to 5000 nM.
At GCN2 kinase, `CS(=O)(=O)NC[C@@H]1CN(c2ccnc(-c3cnc4ccc(C(F)F)nn34)c2)CCO1` [II-110, (S)—N-((4-(2-(6-(Difluoromethyl)imidazo[1,2-b]pyridazin-3-yl)pyridin-4-yl)morpholin-2-yl)methyl)methanesulfonamide] showed a Ki of under 10 nM. Moreover, the IC50 in test [1] was under 500 nM.
The corresponding values for `CS(=O)(=O)NC[C@H]1CCCN(c2cc(-c3cnc4ccc(C(F)F)nn34)cc(O)n2)C1` [II-111, (S)—N-((1-(4-(6-(Difluoromethyl)imidazo[1,2-b]pyridazin-3-yl)-6-oxo-1,6-dihydropyridin-2-yl)piperidin-3-yl)methyl)methanesulfonamide] are under 10 nM and 500 to 5000 nM.
`CS(=O)(=O)NCC1CN(c2cc(-c3cnc4ccc(C(F)F)nn34)ncn2)CCC1O` (stereo not drawn) [II-112, N-((1-(6-(6-(Difluoromethyl)imidazo[1,2-b]pyridazin-3-yl)pyrimidin-4-yl)-4-hydroxypiperidin-3-yl)methyl)methanesulfonamide] displayed a Ki at GCN2 kinase of under 10 nM. Also, the IC50 in test [1] lay in the range of 500 to 5000 nM.
The corresponding values for `OCCn1cc(-c2cc(-c3cnc4ccc(C(F)F)nn34)ccn2)cn1` [II-113, 2-(4-(4-(6-(Difluoromethyl)imidazo[1,2-b]pyridazin-3-yl)pyridin-2-yl)-1H-pyrazol-1-yl)ethanol] are 10 to 1000 nM and 500 to 5000 nM.
The corresponding values for `CC(C)(NS(C)(=O)=O)C1CCCN(c2cc(-c3cnc4ccc(C(F)F)nn34)ccn2)C1` (stereo not drawn) [II-114, N-(2-(1-(4-(6-(Difluoromethyl)imidazo[1,2-b]pyridazin-3-yl)pyridin-2-yl)piperidin-3-yl)propan-2-yl)methanesulfonamide] are 10 to 1000 nM and over 5000 nM.
On GCN2 kinase, `CC1(CNS(C)(=O)=O)CCCN(c2cc(-c3cnc4ccc(C(F)F)nn34)ccn2)C1` (stereo not drawn) [II-115, N-((1-(4-(6-(Difluoromethyl)imidazo[1,2-b]pyridazin-3-yl)pyridin-2-yl)-3-methylpiperidin-3-yl)methyl)methanesulfonamide] registered a Ki of 10 to 1000 nM. The compound also displayed a concentration for half-maximal inhibition (IC50) in test [1] of 500 to 5000 nM.
The corresponding values for `CNc1cc(-c2cnc3ccc(C(F)F)nn23)cc(N2CCCC(CNS(C)(=O)=O)C2)n1` (stereo not drawn) [II-116, N-((1-(4-(6-(Difluoromethyl)imidazo[1,2-b]pyridazin-3-yl)-6-(methylamino)pyridin-2-yl)piperidin-3-yl)methyl)methanesulfonamide] are under 10 nM and 500 to 5000 nM.
The corresponding values for `CS(=O)(=O)NCC1CCCN(c2cc(-c3cnc4ccc(C(F)F)nn34)cnc2C#N)C1` (stereo not drawn) [II-117, N-((1-(2-Cyano-5-(6-(difluoromethyl)imidazo[1,2-b]pyridazin-3-yl)pyridin-3-yl)piperidin-3-yl)methyl)methanesulfonamide] are 10 to 1000 nM and 500 to 5000 nM.
The corresponding values for `CC1CN(c2cc(-c3cnc4ccc(C(F)F)nn34)ccn2)CC(CNS(C)(=O)=O)O1` (stereo not drawn) [II-118, N-((4-(4-(6-(Difluoromethyl)imidazo[1,2-b]pyridazin-3-yl)pyridin-2-yl)-6-methylmorpholin-2-yl)methyl)methanesulfonamide] are 10 to 1000 nM and 500 to 5000 nM.
`CC1CN(c2cc(-c3cnc4ccc(C(F)F)nn34)ccn2)CC(CNS(C)(=O)=O)O1` (stereo not drawn) [II-119, N-((4-(4-(6-(Difluoromethyl)imidazo[1,2-b]pyridazin-3-yl)pyridin-2-yl)-6-methylmorpholin-2-yl)methyl)methanesulfonamide] yielded a Ki on GCN2 kinase of under 10 nM. In test [1], the IC50 was under 500 nM.
The corresponding values for `COc1cc(-c2cnc3ccc(C(F)F)nn23)cc(N2CCC[C@H](CNS(C)(=O)=O)C2)n1` [II-120, (S)—N-((1-(4-(6-(Difluoromethyl)imidazo[1,2-b]pyridazin-3-yl)-6-methoxypyridin-2-yl)piperidin-3-yl)methyl)methanesulfonamide] are under 10 nM and over 5000 nM.
